According to ChEMBL document CHEMBL5154682, “TDP-43 Modulation by Tau-Tubulin Kinase 1 Inhibitors: A New Avenue for Future Amyotrophic Lateral Sclerosis Therapy” (J Med Chem, 2022):
pIC50: −log10 of the molar value. Active and inactive are the calls of the source. The rule behind the calls is not given here.

Experiments:
[1] = target: T1, Tau-tubulin kinase 2 (Homo sapiens, UniProt Q6IQ55); conditions: dose 10.0 µM, time 30.0 min
[2] = target: T2, Tau-tubulin kinase 1 (Homo sapiens, UniProt Q5TCY1); conditions: dose 10.0 µM, time 30.0 min
[3] = Permeability of the compound at pH 7.4 PBS/EtOH buffer (70:30) by PAMPA-BBB assay
[4] = Selectivity index, ratio of IC50 for recombinant human TTBK1 to IC50 for recombinant human TTBK2
[5] = target: T2, Tau-tubulin kinase 1
[6] = target: T1, Tau-tubulin kinase 2
[7] = tested on: SH-SY5Y; test: Neuroprotective activity against okadaic acid-induced neurotoxicity in human SH-SY5Y cells assessed as reduction in Tau hyperphosphorylation by measuring cell viability at 1 to 5 uM incubated for 24 hrs by MTT assay; type: functional, cell-based; conditions: dose 1-5 µM
[8] = target: T1, Tau-tubulin kinase 2; test: Inhibition of TTBK2 (unknown origin)
[9] = target: T2, Tau-tubulin kinase 1; remark: listed apart in the source
[10] = target: T2, Tau-tubulin kinase 1; test: Inhibition of TTBK1 in sporadic ALS patient derived human lymphoblasts assessed as reduction in cytosolic TDP-43 levels at 5 to 10 uM treated for 24 hrs by Western blot analysis; type: cell-based; conditions: Lymphoblastoid cell, dose 5-10 µM
[11] = tested on: SH-SY5Y; test: Neuroprotective activity against ethacrynic acid-induced neurotoxicity human SH-SY5Y cells assessed as decrease in TDP-43 phosphorylation at Ser409 at 5 uM preincubated for 1 hr followed by EA addition and further incubated for 24 hrs by Western blot analysis; type: functional, cell-based; conditions: time 25.0 hrs
[12] = target: T2, Tau-tubulin kinase 1; test: Inhibition of TTBK1 in sporadic ALS patient derived human lymphoblasts assessed as reduction in TDP-43 phosphorylation levels at 5 to 10 uM treated for 24 hrs by Western blot analysis; type: cell-based; conditions: Lymphoblastoid cell, dose 5-10 µM
[13] = tested on: SH-SY5Y; test: Neuroprotective activity against ethacrynic acid-induced neurotoxicity human SH-SY5Y cells assessed as increase in cell viability at 5 uM preincubated for 1 hr followed by ethacrynic acid addition and further incubated for 24 hrs by MTT assay; type: functional, cell-based; conditions: time 25.0 hrs
[14] = target: T2, Tau-tubulin kinase 1; test: Inhibition of TTBK1 in sporadic ALS patient derived human lymphoblasts assessed as recovery nuclear localization of TDP-43 levels at 5 to 10 uM treated for 24 hrs by Western blot analysis; type: cell-based; conditions: Lymphoblastoid cell, dose 5-10 µM

T1 sequence (Q6IQ55 whole entry): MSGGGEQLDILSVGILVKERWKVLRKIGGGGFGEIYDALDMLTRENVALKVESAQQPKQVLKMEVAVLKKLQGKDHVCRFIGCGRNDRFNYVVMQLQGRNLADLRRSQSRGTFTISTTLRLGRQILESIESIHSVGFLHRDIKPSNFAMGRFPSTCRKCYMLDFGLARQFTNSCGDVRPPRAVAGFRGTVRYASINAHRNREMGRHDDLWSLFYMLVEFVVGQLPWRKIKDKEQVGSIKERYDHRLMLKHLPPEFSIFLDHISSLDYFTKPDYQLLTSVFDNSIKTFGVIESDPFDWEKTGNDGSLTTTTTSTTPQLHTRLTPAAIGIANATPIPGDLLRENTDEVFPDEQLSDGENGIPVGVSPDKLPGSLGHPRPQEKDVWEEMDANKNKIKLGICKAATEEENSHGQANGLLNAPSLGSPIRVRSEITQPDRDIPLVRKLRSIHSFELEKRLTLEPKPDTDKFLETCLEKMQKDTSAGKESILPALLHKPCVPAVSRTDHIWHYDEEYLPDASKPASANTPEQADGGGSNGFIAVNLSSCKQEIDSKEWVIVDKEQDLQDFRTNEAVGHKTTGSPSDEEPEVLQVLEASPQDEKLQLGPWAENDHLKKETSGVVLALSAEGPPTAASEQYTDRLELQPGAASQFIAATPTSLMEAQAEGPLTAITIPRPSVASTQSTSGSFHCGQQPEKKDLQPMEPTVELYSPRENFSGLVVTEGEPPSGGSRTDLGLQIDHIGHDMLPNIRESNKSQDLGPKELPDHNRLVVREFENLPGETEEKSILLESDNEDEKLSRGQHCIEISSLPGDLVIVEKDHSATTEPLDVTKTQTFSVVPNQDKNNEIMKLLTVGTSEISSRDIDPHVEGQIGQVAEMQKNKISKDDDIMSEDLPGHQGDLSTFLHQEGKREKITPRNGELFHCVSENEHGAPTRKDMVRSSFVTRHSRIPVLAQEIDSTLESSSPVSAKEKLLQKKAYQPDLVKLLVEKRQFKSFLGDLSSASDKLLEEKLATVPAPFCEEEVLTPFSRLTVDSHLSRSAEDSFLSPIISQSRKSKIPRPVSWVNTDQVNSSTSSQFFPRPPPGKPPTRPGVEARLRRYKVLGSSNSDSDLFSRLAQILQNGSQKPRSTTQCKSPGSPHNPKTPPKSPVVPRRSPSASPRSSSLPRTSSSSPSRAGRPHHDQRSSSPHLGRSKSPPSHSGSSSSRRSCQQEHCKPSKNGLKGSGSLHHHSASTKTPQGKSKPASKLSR
T2 sequence (Q5TCY1 whole entry): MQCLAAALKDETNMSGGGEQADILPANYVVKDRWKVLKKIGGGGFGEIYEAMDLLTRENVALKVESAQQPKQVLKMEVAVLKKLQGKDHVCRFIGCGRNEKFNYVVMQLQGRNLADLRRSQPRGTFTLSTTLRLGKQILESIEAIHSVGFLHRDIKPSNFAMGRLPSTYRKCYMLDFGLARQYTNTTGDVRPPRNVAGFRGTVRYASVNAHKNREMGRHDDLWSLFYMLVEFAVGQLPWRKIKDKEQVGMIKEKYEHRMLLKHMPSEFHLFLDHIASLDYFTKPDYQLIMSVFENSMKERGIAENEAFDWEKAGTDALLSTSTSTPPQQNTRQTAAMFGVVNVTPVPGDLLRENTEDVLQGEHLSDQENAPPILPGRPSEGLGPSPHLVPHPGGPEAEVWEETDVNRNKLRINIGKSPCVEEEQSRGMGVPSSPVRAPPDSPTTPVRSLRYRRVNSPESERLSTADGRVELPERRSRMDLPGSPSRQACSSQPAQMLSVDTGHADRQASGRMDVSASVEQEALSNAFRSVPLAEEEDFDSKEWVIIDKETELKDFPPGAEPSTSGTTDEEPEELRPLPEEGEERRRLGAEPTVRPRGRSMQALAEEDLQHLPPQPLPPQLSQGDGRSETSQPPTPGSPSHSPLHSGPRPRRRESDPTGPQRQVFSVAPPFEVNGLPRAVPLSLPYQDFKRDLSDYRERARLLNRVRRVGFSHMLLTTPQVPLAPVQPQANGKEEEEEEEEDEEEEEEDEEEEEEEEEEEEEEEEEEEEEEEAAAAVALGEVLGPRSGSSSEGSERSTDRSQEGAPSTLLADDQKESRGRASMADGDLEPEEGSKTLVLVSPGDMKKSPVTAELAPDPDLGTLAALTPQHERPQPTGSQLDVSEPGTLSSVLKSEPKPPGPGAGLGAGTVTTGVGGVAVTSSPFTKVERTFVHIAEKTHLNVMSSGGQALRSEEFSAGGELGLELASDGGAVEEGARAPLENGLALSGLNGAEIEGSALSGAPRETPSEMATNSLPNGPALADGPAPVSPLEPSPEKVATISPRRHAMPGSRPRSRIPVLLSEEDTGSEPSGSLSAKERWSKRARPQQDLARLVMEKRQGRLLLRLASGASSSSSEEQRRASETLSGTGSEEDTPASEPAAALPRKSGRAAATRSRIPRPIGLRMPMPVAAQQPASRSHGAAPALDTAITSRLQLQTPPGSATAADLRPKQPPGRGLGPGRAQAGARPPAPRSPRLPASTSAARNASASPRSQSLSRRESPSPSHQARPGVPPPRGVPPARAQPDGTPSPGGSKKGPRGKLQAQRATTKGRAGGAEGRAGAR

Compound: c1nc(NC2CCCCC2)c2cc[nH]c2n1
- inhibition [1]: 15%
- inhibition [2]: 3%

Compound: CCn1cc(C(=O)O)c(=O)c2cc(F)c(N3CCNCC3)nc21 [ENOXACIN]
- permeability [3]: Permeable

Compound: Clc1ccccc1Oc1ccc(Nc2ncnc3[nH]ccc23)cc1
- permeability [3]: Permeable

Compound: CNCCCN1c2ccccc2CCc2ccccc21 [DESIPRAMINE]
- permeability [3]: Permeable

Compound: c1cncc(Oc2ccc(Nc3ncnc4[nH]ccc34)cc2)c1
- Selectivity Index [4]: 0.12
- permeability [3]: Impermeable
- pIC50 [5]: 6.12
- pIC50 [6]: 5.22

Compound: CCOc1ccc(Nc2ncnc3[nH]ccc23)cc1
- Activity [7]: Active
- Selectivity Index [4]: 0.16
- permeability [3]: Impermeable
- pIC50 [5]: 5.64
- pIC50 [6]: 4.86

Compound: Nc1nc(Nc2ccc(Oc3ccc(C(F)(F)F)cc3)cc2)c2cc[nH]c2n1
- Activity [7]: Active
- Selectivity Index [4]: 0.13
- permeability [3]: Permeable
- pIC50 [5]: 6.42

Compound: CC[C@@](C)(O)C#Cc1cc2c(ccn2-c2cc(OC)nc(N)n2)cn1
- pIC50 [8]: 8.57
- pIC50 [9]: 8.80

Compound: CN(C)CCCN1c2ccccc2Sc2ccccc21 [PROMAZINE]
- permeability [3]: Permeable

Compound: O=[N+]([O-])c1ccc(Oc2ccc(Nc3ncnc4[nH]ccc34)cc2)cc1
- permeability [3]: Permeable

Compound: Clc1ccc(Nc2ncnc3sccc23)cc1
- inhibition [2]: 20%

Compound: Clc1ccccc1Nc1ncnc2[nH]ccc12
- Selectivity Index [4]: 0.51
- pIC50 [5]: 4.66
- pIC50 [6]: 4.38

Compound: Oc1cccc(Nc2ncnc3[nH]ccc23)c1
- Selectivity Index [4]: 0.9
- pIC50 [5]: 5.21
- pIC50 [6]: 5.17

Compound: Clc1cccc(Cn2cc(COc3ccc(Nc4ncnc5[nH]ccc45)cc3)nn2)c1
- Selectivity Index [4]: 0.24
- permeability [3]: Impermeable
- pIC50 [5]: 6.32
- pIC50 [6]: 5.69

Compound: Oc1ccc(CCNc2ncnc3[nH]ccc23)cc1
- Selectivity Index [4]: 0.33
- pIC50 [5]: 4.89
- pIC50 [6]: 4.42

Compound: Nc1ccc(Sc2ccc(Nc3ncnc4[nH]ccc34)cc2)cc1
- permeability [3]: Permeable

Compound: Cc1cccc(Oc2ccc(Nc3ncnc4[nH]ccc34)cc2)c1
- permeability [3]: Permeable

Compound: O=C(c1ccc(F)cc1)c1ccc(Nc2ncnc3[nH]ccc23)cc1
- permeability [3]: Permeable

Compound: CC1(N)CCN(Cc2ccn3ncnc(Nc4cc(O)cc(Br)c4)c23)CC1
- pIC50 [8]: 6.77

Compound: FC(F)(F)Oc1ccc(Nc2ncnc3[nH]ccc23)cc1
- Selectivity Index [4]: 0.11
- permeability [3]: Impermeable
- pIC50 [5]: 6.00
- pIC50 [6]: 5.06

Compound: COc1cccc(Oc2ccc(Nc3ncnc4[nH]ccc34)cc2)c1
- Activity [7]: Active
- permeability [3]: Permeable

Compound: Oc1cccc(Nc2ncnc3[nH]ncc23)c1
- inhibition [1]: 13%
- Selectivity Index [4]: 0.22
- pIC50 [5]: 5.04

Compound: c1ccc(Nc2ncnc3[nH]ccc23)cc1
- Selectivity Index [4]: 0.47
- permeability [3]: Permeable
- pIC50 [5]: 6.10
- pIC50 [6]: 5.77

Compound: Cc1ccc(Cn2cc(COc3ccc(Nc4ncnc5[nH]ccc45)cc3)nn2)cc1
- Selectivity Index [4]: 0.57
- permeability [3]: Impermeable
- pIC50 [5]: 6.00
- pIC50 [6]: 5.76

Compound: Clc1ccc(CCNc2ncnc3[nH]ccc23)cc1
- pIC50 [5]: 4.74
- pIC50 [6]: 4.07

Compound: c1nc(Nc2ccc(N3CCOCC3)cc2)c2cc[nH]c2n1
- Selectivity Index [4]: 0.3
- pIC50 [5]: 5.31
- pIC50 [6]: 4.80

Compound: COc1ccc(Oc2ccc(Nc3ncnc4[nH]ccc34)cc2)cc1
- permeability [3]: Permeable

Compound: Cn1c(=O)c2c(ncn2C)n(C)c1=O [CAFFEINE]
- permeability [3]: Permeable

Compound: Brc1ccc(Oc2ccc(Nc3ncnc4[nH]ccc34)cc2)cc1
- permeability [3]: Permeable

Compound: Nc1nc(Nc2ccc(Oc3cccc(Cl)c3)cc2)c2cc[nH]c2n1
- Selectivity Index [4]: 0.12
- permeability [3]: Permeable

Compound: Clc1cccc(Nc2ncnc3[nH]ccc23)c1
- Selectivity Index [4]: 1.09
- pIC50 [5]: 4.82
- pIC50 [6]: 4.86

Compound: O=C(c1ccccc1)c1ccc(Nc2ncnc3[nH]ccc23)cc1
- Activity [7]: Active
- permeability [3]: Permeable

Compound: Nc1nc(Nc2ccc(Oc3ccc(Cl)cc3)cc2)c2cc[nH]c2n1
- permeability [3]: Permeable

Compound: c1nc(Nc2ccc(N3CCOCC3)cc2)c2cn[nH]c2n1
- inhibition [1]: 12%
- inhibition [2]: 25%

Compound: Clc1cccc(Oc2ccc(Nc3ncnc4[nH]ccc34)cc2)c1
- inhibition [1]: 1%
- Activity [10]: Active
- Activity [11]: Active
- Activity [7]: Active
- Activity [12]: Active
- Activity [13]: Active
- Activity [14]: Active
- permeability [3]: Permeable

Compound: Clc1ccc(Nc2ncnc3[nH]ccc23)cc1
- Selectivity Index [4]: 0.15
- pIC50 [5]: 5.49
- pIC50 [6]: 4.69

Compound: Clc1ccc(Oc2ccc(Nc3ncnc4[nH]ccc34)cc2)cc1Cl
- Selectivity Index [4]: 0.4
- permeability [3]: Permeable
- pIC50 [5]: 5.64
- pIC50 [6]: 5.24

Compound: c1cc(Nc2ncnc3[nH]ccc23)c2c(c1)OCO2
- Activity [7]: Active
- Selectivity Index [4]: 0.21
- permeability [3]: Permeable
- pIC50 [5]: 5.80
- pIC50 [6]: 5.12

Compound: c1ccc(CCn2cc(COc3ccc(Nc4ncnc5[nH]ccc45)cc3)nn2)cc1
- Selectivity Index [4]: 0.15
- permeability [3]: Impermeable
- pIC50 [5]: 6.41
- pIC50 [6]: 5.58

Compound: Nc1nc(Nc2ccc(Oc3cccc(C(F)(F)F)c3)cc2)c2cc[nH]c2n1
- Selectivity Index [4]: 0.33
- permeability [3]: Permeable

Compound: CC(C)Oc1ccc(Nc2ncnc3[nH]ccc23)cc1
- Activity [7]: Active
- Selectivity Index [4]: 0.17
- permeability [3]: Permeable
- pIC50 [5]: 5.82
- pIC50 [6]: 5.08

Compound: Oc1ccc(Nc2ncnc3[nH]ccc23)cc1
- Selectivity Index [4]: 0.45
- pIC50 [5]: 5.52
- pIC50 [6]: 5.13

Compound: Clc1ccc(Cn2cc(COc3ccc(Nc4ncnc5[nH]ccc45)cc3)nn2)cc1
- Selectivity Index [4]: 0.21
- permeability [3]: Impermeable
- pIC50 [5]: 6.21
- pIC50 [6]: 5.54

Compound: CC(=O)c1ccc(Nc2ncnc3[nH]ccc23)cc1
- Selectivity Index [4]: 0.46
- pIC50 [5]: 5.37
- pIC50 [6]: 5.03

Compound: Clc1ccccc1Cn1cc(COc2ccc(Nc3ncnc4[nH]ccc34)cc2)nn1
- Selectivity Index [4]: 0.13
- permeability [3]: Impermeable
- pIC50 [5]: 6.44
- pIC50 [6]: 5.56

Compound: Clc1ccc(CNc2ncnc3[nH]ccc23)cc1
- inhibition [1]: 10%
- inhibition [2]: 32%

Compound: Clc1ccc(Nc2ncnc3[nH]ncc23)cc1
- inhibition [1]: 1%
- inhibition [2]: 8%

Compound: FC(F)(F)c1ccc(Oc2ccc(Nc3ncnc4[nH]ccc34)cc2)cc1
- inhibition [1]: 5%

Compound: O=C(c1ccc(Nc2ncnc3[nH]ccc23)cc1)c1ccc(Cl)c(Cl)c1
- inhibition [2]: 9%

Compound: c1cc(Nc2ncnc3[nH]ccc23)cc(N2CCOCC2)c1
- Selectivity Index [4]: 0.82
- pIC50 [5]: 5.33
- pIC50 [6]: 5.24

Compound: Oc1ccccc1Nc1ncnc2[nH]ccc12
- inhibition [1]: 1%
- inhibition [2]: 14%

Compound: COC(=O)c1cc(Nc2ncnc3[nH]ccc23)ccc1Br
- pIC50 [5]: 5.66
- pIC50 [6]: 5.38

Compound: COc1ccc(Nc2ncnc3[nH]ccc23)cc1
- Selectivity Index [4]: 0.39
- permeability [3]: Impermeable
- pIC50 [5]: 6.28
- pIC50 [6]: 5.88

Compound: c1ccc(-n2cc(COc3ccc(Nc4ncnc5[nH]ccc45)cc3)nn2)cc1
- inhibition [1]: 1%
- inhibition [2]: 29%

Compound: FC(F)(F)c1cccc(Oc2ccc(Nc3ncnc4[nH]ccc34)cc2)c1
- inhibition [1]: 1%

Compound: Oc1ccc(Nc2ncnc3[nH]ncc23)cc1
- inhibition [1]: 1%
- inhibition [2]: 3%

Compound: Oc1ccc(CNc2ncnc3[nH]ccc23)cc1
- inhibition [1]: 10%
- inhibition [2]: 23%

Compound: Fc1ccc(Oc2ccc(Nc3ncnc4[nH]ccc34)cc2)cc1
- Selectivity Index [4]: 0.25
- permeability [3]: Permeable

Compound: c1ccc(COc2ccc(Nc3ncnc4[nH]ccc34)cc2)cc1
- permeability [3]: Permeable

Compound: Cc1ccc(Oc2ccc(Nc3ncnc4[nH]ccc34)cc2)cc1
- Activity [11]: Active
- Activity [7]: Active
- Activity [13]: Active
- permeability [3]: Permeable

Compound: CN1C(C(=O)Nc2ccccn2)=C(O)c2ccccc2S1(=O)=O [PIROXICAM]
- permeability [3]: Permeable

Compound: c1ccc(Oc2ccc(Nc3ncnc4[nH]ccc34)cc2)cc1
- permeability [3]: Permeable

Compound: c1cc2c(c(Nc3ncnc4[nH]ccc34)c1)CCCC2
- inhibition [1]: 10%
- inhibition [2]: 23%

Compound: c1ccc(Nc2ncnc3sccc23)cc1
- inhibition [2]: 17%
